According to PubChem BioAssay AID248 (DTP/NCI, 2004):
Values joined by “and” are separate entries in the source; they are usually repeats but may differ in a detail not shown here. Equal values may be shown once. Toxic doses and inconclusive results are not listed. Rule as the data show it: active = T/C of 150% or more; inactive = T/C below 125%.

Test system: L1210 leukemia ip in BDF1 mice, survival T/C
Experiment: NCI In Vivo Anticancer Drug Screen. Data for tumor model L1210 Leukemia (intraperitoneal) in B6D2F1 (BDF1) mice
Conditions: endpoint: mean survival time, higher = longer survival
How it was run: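 Antitumor effect is assessed in tumor-bearing animals. Survival in the compound arm is compared with a vehicle-dosed control arm and expressed as their quotient.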

[1] = dose: 100.0 mg/kg/injection, schedule: Q01DX009 (ip), vehicle: Klucel (hydroxypropylcellulose) (HPC)
[2] = dose: 100.0 mg/kg/injection, schedule: Q04DX003 (ip), vehicle: Klucel (hydroxypropylcellulose) (HPC)
[3] = dose: 200.0 mg/kg/injection, schedule: Q04DX003 (ip), vehicle: Klucel (hydroxypropylcellulose) (HPC)
[4] = dose: 400.0 mg/kg/injection, schedule: Q04DX003 (ip), vehicle: Klucel (hydroxypropylcellulose) (HPC)
[5] = dose: 100.0 mg/kg/injection, schedule: Q01DX001 (ip), vehicle: saline
[6] = dose: 200.0 mg/kg/injection, schedule: Q01DX001 (ip), vehicle: saline
[7] = dose: 100.0 mg/kg/injection, schedule: Q04DX003 (ip), vehicle: saline
[8] = dose: 200.0 mg/kg/injection, schedule: Q04DX003 (ip), vehicle: saline
[9] = dose: 400.0 mg/kg/injection, schedule: Q04DX003 (ip), vehicle: saline
[10] = dose: 400.0 mg/kg/injection, schedule: Q01DX001 (ip), vehicle: saline

Measured: T/C

c1ccc(CN=C2c3ccccc3C3(c4ccccc4)C2N3Cc2ccccc2)cc1 (stereo not drawn)
inactive: [1] 103 % of control | [2] 98 % of control | dose: 200.0 mg/kg/injection, schedule: Q01DX009 (ip), vehicle: Klucel (hydroxypropylcellulose) (HPC) 103 % of control | [3] 101 % of control | dose: 400.0 mg/kg/injection, schedule: Q01DX009 (ip), vehicle: Klucel (hydroxypropylcellulose) (HPC) 103 % of control | [4] 97 % of control

CCOP(=O)(OCC)OC(=C(Cl)Cl)C(Cl)(Cl)Cl
inactive: dose: 100.0 mg/kg/injection, schedule: Q04DX002 (ip), vehicle: saline with Tween-80 115 % of control | dose: 200.0 mg/kg/injection, schedule: Q04DX002 (ip), vehicle: saline with Tween-80 102 % of control

CCOC(=O)c1cc2ccccc2c2ccccc12
inactive: dose: 100.0 mg/kg/injection, schedule: Q04DX003 (ip), vehicle: saline with Tween-80 98 % of control | dose: 200.0 mg/kg/injection, schedule: Q04DX003 (ip), vehicle: saline with Tween-80 95 % of control | dose: 400.0 mg/kg/injection, schedule: Q04DX003 (ip), vehicle: saline with Tween-80 98 % of control

C/C(=N\Sc1ccccc1)c1ccccc1O
inactive: dose: 100.0 mg/kg/injection, schedule: Q04DX002 (ip), vehicle: other 102 % of control | dose: 200.0 mg/kg/injection, schedule: Q04DX002 (ip), vehicle: other 88 % of control

c1cc[c]([Pb]([S]c2ccccn2)([c]2ccccc2)[c]2ccccc2)cc1
inactive: dose: 0.78 mg/kg/injection, schedule: Q01DX009 (ip), vehicle: Klucel (hydroxypropylcellulose) (HPC) 96 % of control | dose: 1.56 mg/kg/injection, schedule: Q01DX009 (ip), vehicle: Klucel (hydroxypropylcellulose) (HPC) 94 % of control | dose: 3.12 mg/kg/injection, schedule: Q01DX009 (ip), vehicle: Klucel (hydroxypropylcellulose) (HPC) 106 % of control and 89 % of control | dose: 25.0 mg/kg/injection, schedule: Q04DX002 (ip), vehicle: Klucel (hydroxypropylcellulose) (HPC) 100 % of control | dose: 50.0 mg/kg/injection, schedule: Q04DX002 (ip), vehicle: Klucel (hydroxypropylcellulose) (HPC) 88 % of control

COC(=O)CCS
inactive: dose: 10.0 mg/kg/injection, schedule: Q01DX001 (ip), vehicle: saline 101 % of control | dose: 20.0 mg/kg/injection, schedule: Q01DX001 (ip), vehicle: saline 101 % of control | dose: 40.0 mg/kg/injection, schedule: Q01DX001 (ip), vehicle: saline 96 % of control

S=P(NNc1ccccc1)(NNc1ccccc1)c1ccc(Cl)cc1
inactive: dose: 100.0 mg/kg/injection, schedule: Q04DX002 (ip), vehicle: gum acacia 89 % of control | dose: 200.0 mg/kg/injection, schedule: Q04DX002 (ip), vehicle: gum acacia 89 % of control | dose: 400.0 mg/kg/injection, schedule: Q04DX002 (ip), vehicle: gum acacia 92 % of control

CCOC(=O)C(C(=O)O)C(=O)CCO (stereo not drawn)
inactive: [5] 98 % of control | [6] 94 % of control

COc1cc2nn(-c3ccccc3N)nc2cc1OC
inactive: dose: 50.0 mg/kg/injection, schedule: Q01DX009 (ip), vehicle: saline with Tween-80 98 % of control | dose: 100.0 mg/kg/injection, schedule: Q01DX009 (ip), vehicle: saline with Tween-80 90 % of control | dose: 200.0 mg/kg/injection, schedule: Q01DX009 (ip), vehicle: saline with Tween-80 102 % of control

CC(=O)Nc1ccc(/C=N/NC(N)=S)cc1
inactive: dose: 100.0 mg/kg/injection, schedule: Q04DX013 (ip), vehicle: carboxymethylcellulose (CMC) 94 % of control | dose: 200.0 mg/kg/injection, schedule: Q04DX013 (ip), vehicle: carboxymethylcellulose (CMC) 98 % of control

OC(CCl)COc1ccccc1 (stereo not drawn)
inactive: dose: 100.0 mg/kg/injection, schedule: Q01DX009 (sc), vehicle: olive oil, sesame oil, peanut oil 91 % of control | dose: 100.0 mg/kg/injection, schedule: Q04DX002 (sc), vehicle: olive oil, sesame oil, peanut oil 101 % of control | dose: 200.0 mg/kg/injection, schedule: Q01DX009 (sc), vehicle: olive oil, sesame oil, peanut oil 105 % of control | dose: 200.0 mg/kg/injection, schedule: Q04DX002 (sc), vehicle: olive oil, sesame oil, peanut oil 104 % of control | dose: 400.0 mg/kg/injection, schedule: Q01DX009 (sc), vehicle: olive oil, sesame oil, peanut oil 94 % of control | dose: 400.0 mg/kg/injection, schedule: Q04DX002 (sc), vehicle: olive oil, sesame oil, peanut oil 96 % of control

O=C(N1CCCCC1)C(Cl)(Cl)Cl
inactive: dose: 50.0 mg/kg/injection, schedule: Q01DX009 (ip), vehicle: Klucel (hydroxypropylcellulose) (HPC) 98 % of control | [1] 88 % of control | dose: 100.0 mg/kg/injection, schedule: Q04DX002 (ip), vehicle: Klucel (hydroxypropylcellulose) (HPC) 92 % of control | dose: 200.0 mg/kg/injection, schedule: Q04DX002 (ip), vehicle: Klucel (hydroxypropylcellulose) (HPC) 110 % of control

CCCCNC(=S)N/N=C/c1ccccn1
inactive: [2] 90 % of control | [3] 97 % of control

O=C1c2cc(Cl)ccc2-c2c1cc(Cl)cc2[N+](=O)[O-]
inactive: [2] 100 % of control | [3] 104 % of control | [4] 98 % of control

C=C(C)COc1c(C)c(C)c(OCC(=C)C)c(C)c1C
inactive: dose: 100.0 mg/kg/injection, schedule: Q01DX001 (ip), vehicle: DMSO 89 % of control | dose: 400.0 mg/kg/injection, schedule: Q01DX001 (ip), vehicle: DMSO 94 % of control

Cc1ccc[n+]([O-])c1N=[N+]=[N-]
inactive: [7] 102 % of control | [8] 102 % of control | [9] 98 % of control

COP1(=O)OCC(C)CO1 (stereo not drawn)
inactive: [5] 102 % of control | [6] 93 % of control | [10] 98 % of control

O=S(=O)(CC(Cl)c1ccccc1)c1ccc(Br)cc1 (stereo not drawn)
inactive: [5] 94 % of control | [7] 94 % of control | [6] 92 % of control | [8] 96 % of control | [10] 92 % of control | [9] 94 % of control

COc1cc(/C=C(\C(=O)O)c2cccc3ccccc23)cc(OC)c1OC
inactive: [2] 97 % of control | [3] 107 % of control | [4] 102 % of control
